From US11440906B2, “Biguanide derivatives and their rearrangement products for use in the treatment of cancer” (CENTRE NATIONAL DE LA RECHERCHE SCIENTIFIQUE, priority 2017, dated 2022)
Like-named read-outs stand apart in the source and are kept apart here.

System: A375 Sensitive cells
Assay: Viability test, trypan blue exclusion, A375 Sensitive cells
Type: cell-based, human
Conditions: Homo sapiens, A-375; for viability at 5 µM / viability at 10 µM: viable cells as percentage of DMSO control
Source text: Different melanoma cell lines were purchased from the American Tissue Culture Collection: A375 and WM9 cells are mutated on B-Raf, CDKN2A and PTEN proteins; SKmel28 cells are mutated on B-Raf and P53 proteins; 1205Lu cells are mutated on B-Raf and PTEN proteins; G-361 cells are mutated on B-Raf and CDKN2A proteins; C8161 cells are mutated on B-Raf and K-Ras proteins; WM3912 cells are mutated on B-Raf and CDKN2A proteins; MeWo cells are mutated on P53 and CDKN2A proteins; WM3918 presents no mutations on characteristic proteins.
For trypan blue staining, […] of cells (melanoma and normal human cells) were aseptically transferred to a 1.5 mL clear Eppendorf tube and incubated for 3 min at room temperature with an equal volume of 0.4% trypan blue solution. Viable cells were counted and the results are expressed as the percentage of the value of control cells. All the experiments are performed 3 times in triplicate.
A375 Sensitive cells were treated with different concentrations of the synthesized molecules (5.0 μM or 10 μM) for different times (24 hr or 48 hr) or with DMSO (Control) for 12 or 48 hr. At the end of the stimulation, viable cells were counted using the trypan blue dye exclusion method. The results are normalized as percentages compare to the control.
A375 Sensitive cells were treated with 5 μM of CRO15 for different times (2 hr, 4 hr, 6 hr, 8 hr, 12 hr, 24 hr or 48 hr) or with 5 μM of PLX4032 (B-Raf inhibitor) for 48 hr or with DMSO (Control) for 48 hr. At the end of stimulation, viable cells were counted using the trypan blue dye exclusion method. The results are normalized as percentages compare to the control and data means±SEM of three independent experiments performed in triplicate *p<0.05; **p<0.01; ***p<0.001.
A375 Sensitive cells were treated with different concentrations of CRO15 (0.5 μM, 2.5 μM, 5.0 μM, 7.5 μM, 50 μM) for 48 hr or with 5 μM of PLX4032 (B-Raf inhibitor) for 48 hr or with DMSO (Control) for 48 hr. At the end of the stimulation, viable cells were counted using the trypan blue dye exclusion method. The results are normalized as percentages compare to the control and data means±SEM of three independent experiments performed in triplicate *p<0.05; **p<0.01; ***p<0.001.
A375 sensitive and resistant melanoma cells were treated with 5 μM of CRO15 for 48 hr or with 5 μM of PLX4032 for 48 hr or with DMSO (Control). At 48 hours, viable cells were counted using the trypan blue dye exclusion method. The results are normalized as percentages compare to the control and data means±SEM of three independent experiments performed in triplicate *p<0.05; **p<0.01; ***p<0.001.

[1] = 24 h, read-out: Viab A375 5 μM/ 24 h
[2] = 48 h, read-out: Viab A375 5 μM/ 48 h
[3] = 24 h, read-out: Viab A375 10 μM/ 24 h
[4] = 48 h, read-out: Viab A375 10 μM/ 48 h

Compound | viability at 5 µM [1] [%] | viability at 5 µM [2] [%] | viability at 10 µM [3] [%] | viability at 10 µM [4] [%] | IC50 (A375, printed in the 10 μM/24 h column of Table 1, read-out: IC50 (converted)) [µM]
Nc1nc(Nc2ccc([N+](=O)[O-])cc2O)nc(C(Cl)(Cl)Cl)n1 [MTF 376, 2-((4-amino-6-(trichloromethyl)-1,3,5-triazin-2-yl)amino)-5-nitrophenol] | 44.7 | 38.9 | 24.3 | 20.9 | 
N=C(NC(=N)c1cccc(F)c1)Nc1nc2ccccc2s1 [MTF 346, N—(N-(benzo[d]thiazol-2-yl)carbamimidoyl)-3-fluorobenzimidamide] | 66.9 | 10.6 | 43.2 | 12.9 | 
N=C(NC(=N)c1ccnc(Br)c1)Nc1nc2ccccc2s1 [MTF 386, N—(N-(benzo[d]thiazol-2-yl)carbamimidoyl)-2-bromoisonicotinimidamide] | 28.9 | 6.6 | 18.1 | 3.7 | 
N=c1nc(C(Cl)(Cl)Cl)nc(Nc2ccccc2O)[nH]1 [MTF 373, 2-((4-amino-6-(trichloromethyl)-1,3,5-triazin-2-yl)amino)phenol] | 34.3 | 22.5 | 38.6 | 22.8 | 
N=C(NC(=N)c1ccncc1)Nc1nc2ccccc2s1 [MTF 253, N—(N-(benzo[d]thiazol-2-yl)carbamimidoyl)isonicotinimidamide] | 27.8 | 6.9 | 14.9 | 4.1 | 
N=C(NC(=N)c1cccc(Cl)c1)Nc1nc(-c2ccccc2)cs1 [MTF 267, 3-chloro-N—(N-(4-phenylthiazol-2-yl)carbamimidoyl)benzimidamide] | 113 | 113 | 134 | 73.3 | 
Nc1nc(Nc2ccccc2O)nc(-c2cccc(Cl)c2)n1 [MTF 332, 2-((4-amino-6-(3-chlorophenyl)-1,3,5-triazin-2-yl)amino)phenol] | 122 | 87.6 | 104 | 65.4 | 
CCOc1cccc(C(=N)NC(=N)Nc2nc3ccccc3s2)c1 [MTF 344, N—(N-(benzo[d]thiazol-2-yl)carbamimidoyl)-3-ethoxybenzimidamide] | 84.3 | 26.1 | 38.7 | 26.1 | 
Cc1csc(NC(=N)NC(=N)c2ccc(Cl)cc2)n1 [MTF 286, 4-chloro-N—(N-(4-methylthiazol-2-yl)carbamimidoyl)benzimidamide] | 48 | 155 | 65.3 | 120 | 
CC(=O)c1cccc(-c2nc(N)nc(Nc3ccccc3SSc3ccccc3Nc3nc(N)nc(-c4cccc(C(C)=O)c4)n3)n2)c1 [MTF 462, 1,1′-((((disulfanediylbis(2,1-phenylene))bis(azanediyl))bis(6-amino-1,3,5-triazine-4,2-diyl))bis(3,1-phenylene))bis(ethan-1-one)] | 101 | 80 | 4.8 | 44.1 | 
COc1cccc(-c2nc(N)nc(Nc3ccccc3SSc3ccccc3Nc3nc(N)nc(-c4cccc(OC)c4)n3)n2)c1 [MTF 318] | 74.1 | 21.6 | 20.5 | 6.3 | 
Nc1nc(Nc2ccccc2SSc2ccccc2Nc2nc(N)nc(-c3ccc4c(c3)OCO4)n2)nc(-c2ccc3c(c2)OCO3)n1 [MTF 449, N2,N2′-(disulfanediylbis(2,1-phenylene))bis(6-(benzo[d][1,3]dioxol-5-yl)-1,3,5-triazine-2,4-diamine)] | 74.2 | 67.8 | 59.1 | 53 | 
Nc1nc(Nc2ccccc2SSc2ccccc2Nc2nc(N)nc(-c3cccc(Br)c3)n2)nc(-c2cccc(Br)c2)n1 [MTF 323, N2,N2′-(disulfanediylbis(2,1-phenylene))bis(6-(3-bromophenyl)-1,3,5-triazine-2,4-diamine)] | 34.6 | 23.5 | 47.4 | 8.3 | 
COc1cccc(C(=N)NC(=N)Nc2nc3ccccc3s2)c1 [MTF 342, N—(N-(benzo[d]thiazol-2-yl)carbamimidoyl)-3-methoxybenzimidamide] | 48.6 | 8.6 | 32.2 | 8.6 | 
COc1ccc2nc(NC(=N)NC(=N)c3cccc(Br)c3)sc2c1 [MTF 264, 3-bromo-N—(N-(6-methoxybenzo[d]thiazol-2-yl)carbamimidoyl)benzimidamide] | 87 |  | 89 | 99 | 
COc1cc(-c2nc(N)nc(Nc3ccccc3SSc3ccccc3Nc3nc(N)nc(-c4cc(OC)c(OC)c(OC)c4)n3)n2)cc(OC)c1OC [MTF 446, N2,N2′-(disulfanediylbis(2,1-phenylene))bis(6-(3,4,5-trimethoxyphenyl)-1,3,5-triazine-2,4-diamine)] | 62.6 | 13 | 16.3 | 1.8 | 
N=C(NC(=N)c1cccc(Cl)c1)Nc1nc2ccccc2s1 [MTF 243, N—(N-(benzo[d]thiazol-2-yl)carbamimidoyl)-3-chlorobenzimidamide] | 22.1 | 7 | 12.1 | 2.7 | 
N=C(NC(=N)c1ccccc1F)Nc1nc2ccccc2s1 [MTF 249, N—(N-(benzo[d]thiazol-2-yl)carbamimidoyl)-2-fluorobenzimidamide] | 25.4 | 10.6 | 14.4 | 8.9 | 
Cc1ccc(-c2nc(N)nc(Nc3ccccc3SSc3ccccc3Nc3nc(N)nc(-c4ccc(C)cc4)n3)n2)cc1 [MTF 451, N2,N2′-(disulfanediylbis(2,1-phenylene))bis(6-(p-tolyl)-1,3,5-triazine-2,4-diamine)] | 26.1 | 23.9 | 10.6 | 12.5 | 
CC(=O)c1cccc(C(=N)NC(=N)Nc2nc3ccccc3s2)c1 [MTF 255, 3-acetyl-N—(N-(benzo[d]thiazol-2-yl)carbamimidoyl)benzimidamide] | 26.1 | 4.7 | 3.2 | 3.8 | 2.3
N=C(NC(=N)c1ccc2c(c1)OCO2)Nc1nc2ccccc2s1 [MTF 383, N—(N-(benzo[d]thiazol-2-yl)carbamimidoyl)benzo[d][1,3]dioxole-5-carboximidamide] | 43.1 | 40.6 | 41.6 | 7.1 | 
N=c1nc(C(Cl)(Cl)Cl)nc(Nc2cc(Cl)ccc2O)[nH]1 [MTF 374, 2-((4-amino-6-(trichloromethyl)-1,3,5-triazin-2-yl)amino)-4-chlorophenol] | 47 | 69.2 | 24 | 27.7 | 
Nc1nc(Nc2ccccc2SSc2ccccc2Nc2nc(N)nc(-c3cccc([N+](=O)[O-])c3)n2)nc(-c2cccc([N+](=O)[O-])c2)n1 [MTF 445, N2,N2′-(disulfanediylbis(2,1-phenylene))bis(6-(3-nitrophenyl)-1,3,5-triazine-2,4-diamine)] | 62.6 | 35.2 | 72.4 | 16.3 | 
